Results on one molecule are retold here after paper PMC7939385, “Disease-associated mutations in inositol 1,4,5-trisphosphate receptor subunits impair channel function” (The Journal of Biological Chemistry, 2021).

Structures are written as SMILES.

One assay addresses T1, WT mIP3R2 (Mus musculus, UniProt Q9Z329).
T1 construct: gene Itpr2; homotetramer
Kind of assay: [3H]IP3 binding on immunoprecipitated receptor. Conditions: 2.5 nM [3H]IP3 with 50 uM unlabelled IP3 for nonspecific binding; pH 8, 4 °C, 1 h; labelled compound.

Assay [1] concerns the target T2, WT rIP3R1 (Rattus norvegicus, UniProt C7E1V2).
T2 construct: gene Itpr1; homotetramer, ~300 kDa subunit; Methods give NM_001270596, footnote NM_001007235
Kind of assay: competitive [3H]IP3 radioligand binding on immunoprecipitated receptor. Conditions: read-out: apparent EC50. The source says:
competitive [3H]IP3 radioligand binding on immunoprecipitated receptor on WT rIP3R1 | the apparent EC50 for binding was not markedly altered under these conditions

The target of assay [2] is T3, WT rIP3R1 (Rattus norvegicus, UniProt C7E1V2, N602D).
T3 construct: gene Itpr1; homotetramer, ~300 kDa subunit; Methods give NM_001270596, footnote NM_001007235
The assay is described as above.

T1 sequence (Q9Z329 whole entry): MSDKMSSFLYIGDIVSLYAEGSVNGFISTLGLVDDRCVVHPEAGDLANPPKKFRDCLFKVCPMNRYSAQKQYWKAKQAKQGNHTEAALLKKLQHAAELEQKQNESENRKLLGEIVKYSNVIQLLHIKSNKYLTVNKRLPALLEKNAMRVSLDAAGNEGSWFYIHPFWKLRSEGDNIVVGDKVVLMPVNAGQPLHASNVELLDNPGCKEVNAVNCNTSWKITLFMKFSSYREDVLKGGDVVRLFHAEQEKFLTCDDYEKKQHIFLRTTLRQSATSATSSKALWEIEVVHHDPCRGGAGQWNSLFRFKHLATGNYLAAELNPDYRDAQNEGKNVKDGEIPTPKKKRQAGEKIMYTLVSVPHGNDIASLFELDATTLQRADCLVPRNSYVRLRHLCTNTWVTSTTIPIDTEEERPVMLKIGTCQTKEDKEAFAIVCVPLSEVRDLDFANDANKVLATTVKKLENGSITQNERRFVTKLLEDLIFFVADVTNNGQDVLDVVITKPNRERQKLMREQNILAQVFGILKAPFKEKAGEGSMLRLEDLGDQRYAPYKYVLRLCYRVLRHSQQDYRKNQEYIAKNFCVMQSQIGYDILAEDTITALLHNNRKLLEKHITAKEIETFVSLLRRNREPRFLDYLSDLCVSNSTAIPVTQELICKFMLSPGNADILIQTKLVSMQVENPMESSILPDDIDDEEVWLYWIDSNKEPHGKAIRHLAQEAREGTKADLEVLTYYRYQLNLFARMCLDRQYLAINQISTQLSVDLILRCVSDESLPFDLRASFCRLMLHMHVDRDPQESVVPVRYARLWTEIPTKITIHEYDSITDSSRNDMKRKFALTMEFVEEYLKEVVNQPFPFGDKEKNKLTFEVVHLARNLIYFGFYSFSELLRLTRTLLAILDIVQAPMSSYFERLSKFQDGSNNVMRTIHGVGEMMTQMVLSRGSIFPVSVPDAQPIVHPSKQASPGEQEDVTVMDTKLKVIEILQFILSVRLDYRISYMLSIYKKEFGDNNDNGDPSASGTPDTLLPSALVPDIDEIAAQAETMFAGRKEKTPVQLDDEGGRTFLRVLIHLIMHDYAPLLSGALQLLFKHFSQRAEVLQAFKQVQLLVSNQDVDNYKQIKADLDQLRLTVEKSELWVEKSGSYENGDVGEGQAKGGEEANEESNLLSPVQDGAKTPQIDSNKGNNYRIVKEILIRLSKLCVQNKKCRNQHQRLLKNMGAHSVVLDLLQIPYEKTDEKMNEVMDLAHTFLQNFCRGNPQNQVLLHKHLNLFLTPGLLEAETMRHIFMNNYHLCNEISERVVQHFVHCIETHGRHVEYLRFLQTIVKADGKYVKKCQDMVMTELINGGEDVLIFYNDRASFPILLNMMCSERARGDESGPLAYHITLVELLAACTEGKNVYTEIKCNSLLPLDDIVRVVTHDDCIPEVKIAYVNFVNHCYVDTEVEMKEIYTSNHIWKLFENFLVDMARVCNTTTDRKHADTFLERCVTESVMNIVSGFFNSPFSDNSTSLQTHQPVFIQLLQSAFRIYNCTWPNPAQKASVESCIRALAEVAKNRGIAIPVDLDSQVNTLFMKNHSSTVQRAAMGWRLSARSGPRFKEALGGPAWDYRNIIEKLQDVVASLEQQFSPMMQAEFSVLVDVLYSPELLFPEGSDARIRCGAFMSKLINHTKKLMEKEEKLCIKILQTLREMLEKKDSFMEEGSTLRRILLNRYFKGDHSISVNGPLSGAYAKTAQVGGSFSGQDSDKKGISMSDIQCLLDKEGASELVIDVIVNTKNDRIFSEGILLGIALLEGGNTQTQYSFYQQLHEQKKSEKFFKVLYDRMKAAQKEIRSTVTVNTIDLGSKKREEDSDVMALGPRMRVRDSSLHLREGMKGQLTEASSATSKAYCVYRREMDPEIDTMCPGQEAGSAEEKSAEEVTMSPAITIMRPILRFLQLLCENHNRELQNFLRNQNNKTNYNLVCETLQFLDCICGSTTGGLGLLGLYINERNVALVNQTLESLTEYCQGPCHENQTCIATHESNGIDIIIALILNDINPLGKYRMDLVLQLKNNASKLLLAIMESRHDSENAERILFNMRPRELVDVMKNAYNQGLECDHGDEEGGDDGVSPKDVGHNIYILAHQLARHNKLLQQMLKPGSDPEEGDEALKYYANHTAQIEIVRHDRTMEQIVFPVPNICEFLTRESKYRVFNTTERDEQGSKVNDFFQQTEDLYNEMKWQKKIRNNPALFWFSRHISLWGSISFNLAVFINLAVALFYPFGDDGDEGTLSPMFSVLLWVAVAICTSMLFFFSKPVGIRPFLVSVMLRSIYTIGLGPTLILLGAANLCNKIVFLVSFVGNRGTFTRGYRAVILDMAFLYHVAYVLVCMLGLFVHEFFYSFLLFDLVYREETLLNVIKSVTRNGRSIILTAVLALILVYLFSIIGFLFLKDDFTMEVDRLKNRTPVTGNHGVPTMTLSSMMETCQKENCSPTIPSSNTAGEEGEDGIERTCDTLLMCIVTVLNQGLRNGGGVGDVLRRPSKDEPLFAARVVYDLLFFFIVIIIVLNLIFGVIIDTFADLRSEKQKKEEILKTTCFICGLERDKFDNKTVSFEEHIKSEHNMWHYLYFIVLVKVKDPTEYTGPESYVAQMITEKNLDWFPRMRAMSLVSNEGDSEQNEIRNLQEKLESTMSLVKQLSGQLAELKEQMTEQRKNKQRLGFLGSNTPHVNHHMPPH

As for `O=P(O)(O)O[C@@H]1[C@H](O)[C@H](O)[C@@H](OP(=O)(O)O)[C@H](OP(=O)(O)O)[C@H]1O` [IP3], the “[3H]IP3 binding on immunoprecipitated receptor” value at WT mIP3R2 was “IP3 binding to mIP3R2^GS was comparable with WT mIP3R2”. Also, the EC50 on WT rIP3R1 [1] amounted to 45.7 ± 5.3 nM; at WT rIP3R1 [2], 70.2 ± 1.6 nM.
